The values below come from patent US8101603B2, “Tyrosine kinase inhibitors” (Merck Sharp & Dohme Corp., priority 2006, dated 2012).

For the experiment, the target named is T1, human c-Met (Homo sapiens, UniProt P08581).
T1 construct: Recombinant GST-tagged cytosolic domains of human c-Met; 6xHis; made in house; host or cells: Sf9 or Sf21 insect cells (baculovirus, Pharmingen pGcGHLT vector)
Put plainly: In vitro c-Met kinase assay (homogeneous time-resolved fluorescence). It counts as biochemical. Particulars: recombinant GST-tagged c-Met cytosolic domain, 50 μM MgATP, HTRF. From the text:
Recombinant GST-tagged cytosolic domains of human c-Met and other receptor tyrosine kinases including mouse c-Met, human Ron, KDR, IGFR, EGFR, FGFR, Mer, TrkA and Tie2 are used to determine whether the compounds of the instant invention modulate the enzymatic activities of these kinases.
Soluble recombinant GST-tagged cytosolic domains of c-Met and other receptor tyrosine kinases are expressed in a baculovirus system (Pharmingen) according to a protocol recommended by the manufacturer. The c-DNA encoding each cytosolic domain is subcloned into a baculovirus expression vector (pGcGHLT-A, B or C, Pharmingen) containing an in frame 6× histidine tag and a GST tag. The resulting plasmid construct and BaculoGold baculovirus DNA (Pharmingen) are used to co-transfect Sf9 or Sf21 insect cells. After confirming expression of GST-tagged kinase fusion, a high titer recombinant baculovirus stock is produced, expression conditions are optimized, and a scaled up expression of rat KDR-GST fusion is performed. The fusion kinase is then purified from the insect cell lysate by affinity chromatography using glutathione agarose (Pharmingen). The purified protein is dialyzed against 50% glycerol, 2 mM DTT, 50 mM Tris-HCl (pH 7.4) and stored at −20° C. The protein concentrations of the fusion proteins are determined using Coomassie Plus Protein Assay (Pierce) with BSA as standard.
The procedure for determining the potency of a compound to inhibit c-Met kinase comprises the following steps: • 1. Prepare 3-fold serial diluted compound solutions in 100% dimethyl sulfoxide (DMSO) at 20× of the desired final concentrations in a 96 well plate. • 2. […] In a black assay plate, add 2.5 μl of compound solution (or DMSO) and 37.5 μl of master reaction mix per well. Initiate the kinase reaction by adding 10 μl of 0.25 mM MgATP per well. Allow the reactions to proceed for 80 min at room temperature. The final conditions for the reaction are 0.2 nM c-Met, 0.5 μM substrate, 50 μM MgATP, 5 mM MgCl2, 100 mM NaCl, 2 mM DTT, 0.1 mg/ml BSA, 50 mM Tris (pH 7.4) and 5% DMSO. • 4. […] Read HTRF signals on a Victor reader (PerkinElmer) in HTRF mode after 60 min. • 6.

Some results are limits rather than exact numbers.

T1 sequence (P08581 956-1390 limits assumed): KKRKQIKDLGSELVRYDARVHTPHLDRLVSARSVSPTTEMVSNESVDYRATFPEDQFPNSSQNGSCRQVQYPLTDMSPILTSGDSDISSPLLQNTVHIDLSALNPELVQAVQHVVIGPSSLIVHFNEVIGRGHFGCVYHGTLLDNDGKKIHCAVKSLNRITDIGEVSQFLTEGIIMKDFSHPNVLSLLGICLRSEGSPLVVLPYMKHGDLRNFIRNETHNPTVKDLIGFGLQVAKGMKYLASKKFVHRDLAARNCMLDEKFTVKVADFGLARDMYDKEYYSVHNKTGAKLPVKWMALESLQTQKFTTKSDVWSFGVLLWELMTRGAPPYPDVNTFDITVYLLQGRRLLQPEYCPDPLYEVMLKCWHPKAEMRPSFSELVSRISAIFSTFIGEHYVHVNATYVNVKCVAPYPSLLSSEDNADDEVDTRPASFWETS

As for `CC(c1ccc2ccc3ncc(-c4cnn(C)c4)cc3c(=O)c2c1)S(=O)(=O)N(C)c1ccccc1` (stereo not shown) [Compound 7-1, N-methyl-1-[3-(1-methyl-1H-pyrazol-4-yl)-5-oxo-5H-benzo[4,5]cyclohepta[1,2-b]pyridin-7-yl]-N-phenylethanesulfonamide], the half-inhibitory concentration (IC50) is at most 50 µM. The figure for `CN(C)S(=O)(=O)C(F)(F)c1ccc2ccc3ncc(-c4cnn(C)c4)cc3c(=O)c2c1` [Compound 4-1, 1,1-Difluoro-N,N-dimethyl-1-[3-(1-methyl-1H-pyrazol-4-yl)-5-oxo-5H-benzo[4,5]cyclohepta[1,2-b]pyridin-7-yl]methanesulfonamide] is at most 50 µM; for `Cn1cc(-c2cnc3ccc4ccc(CS(=O)(=O)Nc5cccnc5)cc4c(=O)c3c2)cn1` [Compound 5-5, 1-[3-(1-methyl-1H-pyrazol-4-yl)-5-oxo-5H-benzo[4,5]cyclohepta[1,2-b]pyridin-7-yl]-N-pyridin-3-ylmethanesulfonamide] it is at most 50 µM; for `CN(C)S(=O)(=O)C(F)c1ccc2ccc3ncc(-c4cnn(C)c4)cc3c(=O)c2c1` (stereo not shown) [Compound 4-2, 1-Fluoro-N,N-dimethyl-1-[3-(1-methyl-1H-pyrazol-4-yl)-5-oxo-5H-benzo[4,5]cyclohepta[1,2-b]pyridin-7-yl]methanesulfonamide] it is at most 50 µM.
